# Results published in patent US20230382924A1, “MODULATORS OF CYSTIC FIBROSIS TRANSMEMBRANE CONDUCTANCE REGULATOR” (VERTEX PHARMACEUTICALS INCORPORATED, priority 2020, published 2023).
# Tests used:
# CFTR [1] = molecular target: T1, CFTR (Homo sapiens, UniProt P13569); assay: Membrane Potential Dye, Enteroid Assay A; type: cell-based; conditions: for EC50: read-out: Ent. A EC50
# In short: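 Signal is reported as % Activity relative to a triple CFTR modulator control (3 μM + 3 μM + 300 nM acute). Read-out: membrane potential fluorescence (20 μM methyl oxonol) monitored for 15 min after chloride-free stimulation. Dye loading took 25 min at room temperature in Bath 1 buffer containing CaCC blockers.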
# CFTR [2] = molecular target: T1, CFTR; assay: Membrane Potential Dye, Enteroid Assay B; type: cell-based; conditions: for EC50: read-out: Ent. B EC50
# Method: Base medium (ADF+++) consisted of Advanced DMEM/Ham's F12, 2 mM Glutamax, 10 mM HEPES, […] penicillin/streptomycin.
# Bath 1 Buffer consisted of 1 mM MgCl2, 160 mM NaCl, 4.5 mM KCl, 10 mM HEPES, 10 mM Glucose, 2 mM CaCl2).
# Chloride Free Buffer consisted of 1 mM Magnesium Gluconate, 2 mM Calcium Gluconate, 4.5 mM Potassium Gluconate, 160 mM Sodium Gluconate, 10 mM HEPES, 10 mM Glucose.
# Bath 1 Dye Solution consisted of Bath 1 Buffer, 0.04% Pluronic F127, 20 μM Methyl Oxonol, 30 μM CaCCinh-A01, 30 μM Chicago Sky Blue.
# Chloride Free Dye Solution consisted of Chloride Free Buffer, 0.04% Pluronic F127, 20 μM Methyl Oxonol, 30 μM CaCCinh-A01, 30 μM Chicago Sky Blue.
# 3. Enteroid Cell Harvesting and Seeding
# Cells were recovered in cell recovery solution, collected by centrifugation at 650 rpm for 5 min at 4° C., resuspended in TryPLE and incubated for 5 min at 37° C. Cells were then collected by centrifugation at 650 rpm for 5 min at 4° C. and resuspended in IEMM containing 10 μM ROCK inhibitor (RI).
# 5. Membrane Potential Dye, Enteroid Assay B
# Briefly, cells were washed 5 times in Bath 1 Buffer. Bath 1 Dye Solution was added and the cells were incubated for 25 min at room temperature. Following dye incubation, cells were washed 3 times in Chloride Free Dye Solution. Chloride transport was initiated by addition of Chloride Free Dye Stimulation Solution and the fluorescence signal was read for 15 min.
# T1 sequence (P13569 with tags, fused parts or gaps DEL508-508): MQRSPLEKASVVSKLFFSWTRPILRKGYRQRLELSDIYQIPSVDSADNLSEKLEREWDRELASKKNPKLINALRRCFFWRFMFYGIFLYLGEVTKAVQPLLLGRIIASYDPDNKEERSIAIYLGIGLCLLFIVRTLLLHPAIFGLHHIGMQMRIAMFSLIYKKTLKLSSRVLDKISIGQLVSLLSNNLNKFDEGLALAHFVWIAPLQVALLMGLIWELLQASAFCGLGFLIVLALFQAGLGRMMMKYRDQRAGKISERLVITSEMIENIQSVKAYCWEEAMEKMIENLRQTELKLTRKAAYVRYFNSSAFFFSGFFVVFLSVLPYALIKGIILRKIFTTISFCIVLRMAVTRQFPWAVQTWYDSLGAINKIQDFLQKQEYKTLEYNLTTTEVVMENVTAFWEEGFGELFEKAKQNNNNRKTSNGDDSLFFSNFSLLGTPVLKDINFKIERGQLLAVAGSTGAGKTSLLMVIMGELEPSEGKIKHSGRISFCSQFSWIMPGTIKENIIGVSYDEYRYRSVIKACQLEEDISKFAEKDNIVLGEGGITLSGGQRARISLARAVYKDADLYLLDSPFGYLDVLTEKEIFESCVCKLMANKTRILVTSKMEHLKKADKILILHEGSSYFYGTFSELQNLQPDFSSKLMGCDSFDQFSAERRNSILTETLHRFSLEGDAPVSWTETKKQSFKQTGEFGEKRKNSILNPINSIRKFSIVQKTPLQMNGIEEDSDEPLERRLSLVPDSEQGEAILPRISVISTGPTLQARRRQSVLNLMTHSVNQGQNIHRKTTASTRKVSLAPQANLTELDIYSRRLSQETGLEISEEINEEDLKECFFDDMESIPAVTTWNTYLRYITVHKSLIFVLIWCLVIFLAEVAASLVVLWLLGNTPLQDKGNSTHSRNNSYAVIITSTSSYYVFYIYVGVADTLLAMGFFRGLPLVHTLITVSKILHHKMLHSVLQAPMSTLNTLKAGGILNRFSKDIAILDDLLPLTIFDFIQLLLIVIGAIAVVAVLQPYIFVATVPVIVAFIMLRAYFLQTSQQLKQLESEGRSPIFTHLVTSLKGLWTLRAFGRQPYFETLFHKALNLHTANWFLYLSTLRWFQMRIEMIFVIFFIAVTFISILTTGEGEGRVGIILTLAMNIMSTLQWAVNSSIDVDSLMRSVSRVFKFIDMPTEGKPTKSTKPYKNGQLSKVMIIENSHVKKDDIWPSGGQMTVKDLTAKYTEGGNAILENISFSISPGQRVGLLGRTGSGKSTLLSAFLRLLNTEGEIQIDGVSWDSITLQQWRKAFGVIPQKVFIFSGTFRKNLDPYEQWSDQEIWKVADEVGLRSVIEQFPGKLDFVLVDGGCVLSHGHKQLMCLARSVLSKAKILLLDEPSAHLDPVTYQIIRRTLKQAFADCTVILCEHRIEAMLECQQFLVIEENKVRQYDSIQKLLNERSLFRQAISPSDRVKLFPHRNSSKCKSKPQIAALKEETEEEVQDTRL
Compound,Ent. A Max Activity (CFTR [1]; Table 9),EC50 (CFTR [1]; Table 9),Ent. B Max Activity (CFTR [2]; Table 9),EC50 (CFTR [2]; Table 9),Ent. A Max Activity (CFTR [1]; Enteroid Assay A),Ent. B Max Activity (CFTR [2]; Enteroid Assay B),EC50 (CFTR [2]; Enteroid Assay B),EC50 (CFTR [1]; Table 8),Ent. B Max Activity (CFTR [2]; Table 8),EC50 (CFTR [2]; Table 8)
Cc1cccc(C)c1-c1cc2nc(n1)NS(=O)(=O)c1cccc(c1)C(=O)N[C@@H](C(CC(C)C)c1ccccc1)CO2 (stereo in doubt) [Compound 181],+++ (+++ is >60%),< 1000 nM,+++ (+++ is >60%),< 1000 nM,–,–,–,–,–,–
Cc1cccc(C)c1-c1cc2nc(n1)NS(=O)(=O)c1cccc(c1)C(=O)N[C@@H](C(CC(C)C)c1ccccc1)CO2 (stereo in doubt) [Compound 183],+++ (+++ is >60%),< 1000 nM,+++ (+++ is >60%),< 1000 nM,–,–,–,–,–,–
"Cc1cccc(C)c1-c1cc2nc(n1)NS(=O)(=O)c1cccc(c1)C(=O)N[C@@H]1CN(c3ccc(C(F)(F)F)cn3)C[C@H]1O2 [Compound 62, (3R,7R)-19-(2,6-Dimethylphenyl)-5-[5-(trifluoromethyl)pyridin-2-yl]-2-oxa-15λ^6-thia-5,8,16,18,21-pentaazatetracyclo[15.3.1.110,14.03,7]docosa-1(20),10(22),11,13,17(21),18-hexaene-9,15,15-trione]",+++ (+++ is >60%),< 1000 nM,++ (++ is 30-60%),< 1000 nM,–,–,–,–,–,–
"Cc1cccc(C)c1-c1cc2nc(n1)NS(=O)(=O)c1cccc(c1)C(=O)N[C@@H]1CN(Cc3ccc(C(C)(C)C)cc3)C[C@H]1O2 [Compound 63, (3R,7R)-5-[(4-tert-Butylphenyl)methyl]-19-(2,6-dimethylphenyl)-2-oxa-15λ^6-thia-5,8,16,18,21-pentaazatetracyclo[15.3.1.110,14.03,7]docosa-1(20),10(22),11,13,17(21),18-hexaene-9,15,15-trione]",+++ (+++ is >60%),< 1000 nM,+++ (+++ is >60%),< 1000 nM,–,–,–,–,–,–
"Cc1cccc(C)c1-c1cc2nc(n1)NS(=O)(=O)c1cc(n[nH]1)C(=O)N[C@H](CC(C)C)CO2 [Compound 78, (10R)-15-(2,6-dimethylphenyl)-10-isobutyl-3,3-dioxo-12-oxa-3λ^6-thia-2,5,6,9,16,17-hexazatricyclo[11.3.1.14,7]octadeca-1(17),4(18),6,13,15-pentaen-8-one]",++ (++ is 30-60%),3000 to 30000 nM,++ (++ is 30-60%),3000 to 30000 nM,–,–,–,–,–,–
"Cc1cccc(C)c1-c1cc2nc(n1)NS(=O)(=O)c1cccc(c1)C(=O)N[C@H](C)CO2 [Compound 95, (11R)-6-(2,6-Dimethylphenyl)-11-methyl-9-oxa-2λ^6-thia-3,5,12,19-tetraazatricyclo[12.3.1.14,8]nonadeca-1(17),4,6,8(19),14(18),15-hexaene-2,2,13-trione]",–,–,–,–,++ (++ is 30-60%),++ (++ is 30-60%),3000 to 30000 nM,–,–,–
"Cc1cccc(CC2CC2)c1-c1cc2nc(n1)NS(=O)(=O)c1cccc(c1)C(=O)N[C@H](CC(C)C)CO2 [Compound 107, (11R)-6-[2-(cyclopropylmethyl)-6-methyl-phenyl]-11-isobutyl-2,2-dioxo-9-oxa-2λ^6-thia-3,5,12,19-tetrazatricyclo[12.3.1.14,8]nonadeca-1(18),4(19),5,7,14,16-hexaen-13-one]",+++ (+++ is >60%),< 1000 nM,+++ (+++ is >60%),< 1000 nM,–,–,–,–,–,–
Cc1cccc(C)c1-c1cc2nc(n1)NS(=O)(=O)c1cccc(c1)C(=O)NC[C@@H](c1ccc(CCC3(C(F)(F)F)CC3)cc1)O2 [Compound 146],+++ (+++ is >60%),< 1000 nM,+++ (+++ is >60%),< 1000 nM,–,–,–,–,–,–
Cc1cccc(Cc2cccc(C)c2-c2cc3nc(n2)NS(=O)(=O)c2cccc(c2)C(=O)N[C@H](CC(C)C)CO3)c1 [Compound 170],+++ (+++ is >60%),< 1000 nM,+++ (+++ is >60%),< 1000 nM,–,–,–,–,–,–
Cc1cccc(C)c1-c1cc2nc(n1)NS(=O)(=O)c1cccc(c1)C(=O)NC(C)(CC(C)C)CO2 (centres unmarked) [Compound 177],+++ (+++ is >60%),< 1000 nM,+++ (+++ is >60%),< 1000 nM,–,–,–,–,–,–
Cc1cccc(C)c1-c1cc2nc(n1)NS(=O)(=O)c1cccc(c1)C(=O)NC[C@@H](c1ccc(CC(C)(C)C)cc1)O2 [Compound 263],+++ (+++ is >60%),< 1000 nM,++ (++ is 30-60%),< 1000 nM,–,–,–,–,–,–
Cc1cccc(C)c1-c1cc2nc(n1)NS(=O)(=O)c1cccc(c1)C(=O)N[C@@H]1CN(c3ncc(C(F)(F)F)cn3)C[C@H]1O2 [Compound 372],+++ (+++ is >60%),< 1000 nM,++ (++ is 30-60%),< 1000 nM,–,–,–,–,–,–
Cc1cccc(C)c1-c1cc2nc(n1)NS(=O)(=O)c1cccc(c1)C(=O)N[C@@H]1CN(Cc3ccc(C(F)(F)F)cc3)C[C@H]1O2 [Compound 379],+++ (+++ is >60%),< 1000 nM,++ (++ is 30-60%),< 1000 nM,–,–,–,–,–,–
Cc1cccc(C)c1-c1cc2nc(n1)NS(=O)(=O)c1cccc(c1)C(=O)N[C@@H]1CN(Cc3ccccc3)C[C@H]1O2 [Compound 383],+++ (+++ is >60%),< 1000 nM,+++ (+++ is >60%),< 1000 nM,–,–,–,–,–,–
Cc1cccc(C)c1-c1cc2nc(n1)NS(=O)(=O)c1cccc(c1)C(=O)NCC(c1ccc(C34CC(C3)C4)cc1)O2 (centres unmarked) [Compound 396],+++ (+++ is >60%),< 1000 nM,++ (++ is 30-60%),< 1000 nM,–,–,–,–,–,–
Cc1ccc(C2CNC(=O)c3cccc(c3)S(=O)(=O)Nc3nc(cc(-c4c(C)cccc4C)n3)O2)cc1 (centres unmarked) [Compound 405],–,–,–,–,–,–,–,< 1000 nM,++ (++ is 306%),< 1000 nM

# Other lines, results leading:
Ent. A Max Activity (CFTR [1]; Table 9),EC50 (CFTR [1]; Table 9),Ent. B Max Activity (CFTR [2]; Table 9),EC50 (CFTR [2]; Table 9),Ent. A Max Activity (CFTR [1]; Enteroid Assay A),Ent. B Max Activity (CFTR [2]; Enteroid Assay B),EC50 (CFTR [2]; Enteroid Assay B),EC50 (CFTR [1]; Table 8),Ent. B Max Activity (CFTR [2]; Table 8),EC50 (CFTR [2]; Table 8),Compound
+++ (+++ is >60%),< 1000 nM,++ (++ is 30-60%),< 1000 nM,–,–,–,–,–,–,"Cc1cccc(C)c1-c1cc2nc(n1)NS(=O)(=O)c1cccc(c1)C(=O)N[C@@H]1CN(C3CC4(CCCC4)C3)C[C@H]1O2 [Compound 56, (3R,7R)-19-(2,6-Dimethylphenyl)-5-{spiro[3.4]octan-2-yl}-2-oxa-15λ^6-thia-5,8,16,18,21-pentaazatetracyclo[15.3.1.110,14.03,7]docosa-1(20),10(22),11,13,17(21),18-hexaene-9,15,15-trione]"
+++ (+++ is >60%),< 1000 nM,++ (++ is 30-60%),< 1000 nM,–,–,–,–,–,–,"Cc1cccc(C)c1-c1cc2nc(n1)NS(=O)(=O)c1cccc(c1)C(=O)N[C@@H]1CN(CCC(C)(C)C)C[C@H]1O2 [Compound 64, (3R,7R)-5-(3,3-Dimethylbutyl)-19-(2,6-dimethylphenyl)-2-oxa-15λ^6-thia-5,8,16,18,21-pentaazatetracyclo[15.3.1.110,14.03,7]docosa-1(20),10(22),11,13,17(21),18-hexaene-9,15,15-trione]"
+++ (+++ is >60%),3000 to 30000 nM,++ (++ is 30-60%),–,–,–,–,–,–,–,CCC(C)(C)C(=O)N1C[C@H]2NC(=O)c3cccc(c3)S(=O)(=O)Nc3nc(cc(-c4c(C)cccc4C)n3)O[C@@H]2C1 [Compound 369]
+++ (+++ is >60%),3000 to 30000 nM,++ (++ is 30-60%),3000 to 30000 nM,–,–,–,–,–,–,Cc1cccc(C)c1-c1cc2nc(n1)NS(=O)(=O)c1cccc(c1)C(=O)N[C@@H]1CN(C(C)C)C[C@H]1O2 [Compound 375]
+++ (+++ is >60%),< 1000 nM,++ (++ is 30-60%),< 1000 nM,–,–,–,–,–,–,Cc1cccc(C)c1-c1cc2nc(n1)NS(=O)(=O)c1cccc(c1)C(=O)N[C@@H]1CN(C3CCC4(CC3)CC4)C[C@H]1O2 [Compound 376]
+++ (+++ is >60%),< 1000 nM,++ (++ is 30-60%),< 1000 nM,–,–,–,–,–,–,Cc1cccc(C)c1-c1cc2nc(n1)NS(=O)(=O)c1cccc(c1)C(=O)N[C@@H]1CN(C3CC4(CCCCC4)C3)C[C@H]1O2 [Compound 377]
+++ (+++ is >60%),< 1000 nM,+++ (+++ is >60%),< 1000 nM,–,–,–,–,–,–,Cc1cccc(C)c1-c1cc2nc(n1)NS(=O)(=O)c1cccc(c1)C(=O)N[C@@H]1CN(CCC3(C(F)(F)F)CC3)C[C@H]1O2 [Compound 378]
++ (++ is 30-60%),3000 to 30000 nM,++ (++ is 30-60%),–,–,–,–,–,–,–,Cc1cccc(C)c1-c1cc2nc(n1)NS(=O)(=O)c1cccc(c1)C(=O)N[C@@H]1CN(C(=O)CC(C)(C)C)C[C@H]1O2 [Compound 381]
